Columns and labels:
[1] = tested on: Hepatitis C virus; test: Inhibitory activity against hepatitis C virus protease enzyme(HCV) NS3/4A; type: functional, Hepacivirus hominis
[2] = tested on: Hepatitis C virus; test: Inhibitory activity against hepatitis C virus protease enzyme(HCV) by using ELISA replicon assay; type: functional, organism-based, Hepacivirus hominis
[3] = In vitro stability behavior at 4 hr; type: physicochemical; conditions: read-out: Turnover

| Structure (SMILES) | IC50 [2] [µM] | degraded at 4 h [3] [%] | k obs / 1 [1] [M⁻¹ s⁻¹] |
| --- | --- | --- | --- |
| CC(C)C(NC(=O)OC(C)(C)C)C(=O)N1CC[C@H]2[C@H]1C1(CC=CC1)C(=O)N2C(=O)C1CC1 (relative stereo) | – | – | 19 |
| C=C(C)C(=O)N1C(=O)C2(CCC2)[C@@H]2[C@@H]1CCN2C(=O)[C@@H](NC(=O)OC(C)(C)C)C(C)C | – | – | 24 |
| CCN(CC)C(=O)N1C(=O)C2(CCC2)[C@@H]2[C@@H]1CCN2C(=O)[C@@H](NC(=O)OC(C)(C)C)C(C)C | – | – | 3.3 |
| CC(C)C(=O)N1C(=O)C2(CCC2)[C@@H]2[C@@H]1CCN2C(=O)[C@@H](NC(=O)OC(C)(C)C)C(C)C (relative stereo) | 3.1 | 5 | 166 |
| CSC(=O)N1C(=O)C2(CCC2)[C@@H]2[C@@H]1CCN2C(=O)[C@@H](NC(=O)OC(C)(C)C)C(C)C | 7.9 | – | 154 |

Further lines, with some results ahead:

| IC50 [2] [µM] | degraded at 4 h [3] [%] | Structure (SMILES) | k obs / 1 [1] [M⁻¹ s⁻¹] |
| --- | --- | --- | --- |
| 17 | > 50 | CC(C)C(=O)N1C(=O)C2(SCCS2)[C@@H]2[C@@H]1CCN2C(=O)C(NC(=O)OC(C)(C)C)C(C)C (some centres not stated) | 362 |
| > 100 | > 50 | CC(C)C(NC(=O)OC(C)(C)C)C(=O)N1CC[C@H]2[C@H]1C1(SCCS1)C(=O)N2C(=O)C1CC1 (relative stereo) | 621 |
| 4 | 27 | CC(C)[C@H](NC(=O)OC(C)(C)C)C(=O)N1CC[C@H]2[C@H]1C1(CCC1)C(=O)N2C(=O)C1CC1 | 400 |
